Literature values as cited in patent publication US11890375B2, “Ophthalmic solution of difluprednate” (SUN PHARMA ADVANCED RESEARCH COMPANY LIMITED, priority 2015, dated 2024).

CCCC(=O)O[C@]1(C(=O)COC(C)=O)CC[C@H]2[C@@H]3C[C@H](F)C4=CC(=O)C=C[C@]4(C)[C@@]3(F)[C@@H](O)C[C@@]21C [Difluprednate]
solubility in aqueous vehicle: practically insoluble
